Results from ChEMBL document CHEMBL1140977, “Synthesis and screening of a cyclic peptide library: discovery of small-molecule ligands against human prolactin receptor” (Bioorg Med Chem, 2009).
Calls of active or inactive are those of the source. The calls are words filed in the database; no cut-off is given here. Square brackets hold non-standard residues; d marks the D form. Peptide text beside a SMILES is read from it. NMeL = CN[C@@H](CC(C)C)C(=O)O

Legend:
[1] = target: T1, Prolactin receptor (Homo sapiens, UniProt P16471); test: (§1) Binding affinity to human prolactin receptor extracellular binding domain by surface plasmon […]
T1 sequence (P16471 whole entry): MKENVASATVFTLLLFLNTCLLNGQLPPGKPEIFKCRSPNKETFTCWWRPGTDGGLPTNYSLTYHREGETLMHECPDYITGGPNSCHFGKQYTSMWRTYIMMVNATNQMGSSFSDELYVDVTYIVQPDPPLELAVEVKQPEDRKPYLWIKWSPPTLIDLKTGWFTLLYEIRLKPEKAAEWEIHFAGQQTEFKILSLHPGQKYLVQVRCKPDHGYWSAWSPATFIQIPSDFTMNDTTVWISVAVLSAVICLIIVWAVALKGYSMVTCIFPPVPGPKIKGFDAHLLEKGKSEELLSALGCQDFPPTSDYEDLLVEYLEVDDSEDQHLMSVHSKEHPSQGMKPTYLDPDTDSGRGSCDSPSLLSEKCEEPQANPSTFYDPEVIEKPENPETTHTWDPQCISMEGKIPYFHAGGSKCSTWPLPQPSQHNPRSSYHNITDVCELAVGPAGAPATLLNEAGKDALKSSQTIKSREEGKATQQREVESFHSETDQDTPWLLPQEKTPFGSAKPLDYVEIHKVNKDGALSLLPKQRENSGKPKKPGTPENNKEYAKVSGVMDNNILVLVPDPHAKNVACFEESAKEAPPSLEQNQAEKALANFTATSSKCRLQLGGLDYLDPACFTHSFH

[2] = target: T2, Prolactin receptor (Homo sapiens) (UniProt P16471); test: as §1
T2 sequence (whole entry): T1 sequence (P16471 whole entry)

Row | Kd [1] [nM] | Activity [2] | SMILES
1 | 3000 |  | CC(C)C[C@H]1NC(=O)[C@@H](C)NC(=O)[C@H](CCC(=O)O)NC(=O)[C@H](C(C)C)NC(=O)[C@H](CCCNC(=N)N)NC(=O)[C@H](Cc2ccc(O)cc2)NC(=O)[C@H](CO)NC(=O)[C@H](Cc2ccc(O)cc2)NC1=O
2 |  | inactive | CC(C)C[C@H]1C(=O)N[C@@H](CCC(N)=O)C(=O)N[C@@H](CCCNC(=N)N)C(=O)N[C@@H](Cc2ccccc2)C(=O)N[C@@H](C(C)C)C(=O)N[C@@H](CCC(=O)O)C(=O)N[C@@H](C)C(=O)NCC(=O)N1C (cyclo(AG[NMeL]QRFVE))
3 | 2000 |  | CC(C)[C@@H]1NC(=O)[C@H](CCCNC(=N)N)NC(=O)[C@H](CO)NC(=O)[C@H](CCC(N)=O)NC(=O)[C@H](Cc2ccc(O)cc2)NC(=O)[C@H](CCCNC(=N)N)NC(=O)[C@H](C)NC(=O)[C@H](CCC(=O)O)NC1=O (cyclo(ARYQSRVE))
